Experimental data from patent US12415774B2, “Polyol-based esters of hydroxycarboxylic acids” (KetoLipix Therapeutics GmbH, priority 2019, dated 2025).

Test system: pancreatin (Panzytrat 40,000)
Protocol: Both media are from the company Biorelevant®, Ltd. in Great Britain. In addition, in some experiments porcine pancreas is added (Panzytrat® 40,000, Fa. Allergan).
The pancreatin is used in the form of the commercially available product Panzytrat® 40,000 from the Allergan company. The whole mixture is stirred on a hot plate at 50° C.; the course of the reaction is determined and monitored by continuously recording the acid number over time.

3-BHB-di-diglycerol ester was tested, and the “cleavage by pancreatin to the free 3-hydroxybutyric acid” value was “cleaved by pancreatin to the free 3-hydroxybutyric acid”.

3-BHB-mono-diglycerol ester was tested, and the “cleavage by pancreatin to the free 3-hydroxybutyric acid” value was “cleaved by pancreatin to the free 3-hydroxybutyric acid”.

With 3-BHB-tri-diglycerol ester the “cleavage by pancreatin to the free 3-hydroxybutyric acid” value was “cleaved by pancreatin to the free 3-hydroxybutyric acid”.
